On the set-up of series [1]: species or system Sprague-Dawley rats. The conditions noted are these: rat, in vivo. An excerpt: Each wound observed at each dressing change and the wound surface and tissue reaction assessed. There were 5 parameters of wound status that were checked: • i. Wound Film Security—Was the adhesive film used to cover the wound still completely adherent to the skin around the wound? • ii. Wound Surface—What was the exact visual appearance of the wound surface? • iii. Amount of Exudate—How much exudate was trapped under the film? In many cases, accumulated exudate causes the film to lose adherence and the exudates will escape. • iv. Severity of Tissue Reaction—A subjective rating of extent of tissue reaction on a scale of 1 (minimal), 2 (moderate), 3 (extensive). • v. % of Tissue Involved—In some situations, the wound surface contained denatures, friable tissue that could be wiped off with pressure applied to gauze. This test was used to better differentiate denatured tissue from viscous exudates.

Series [2] concerns Candida albicans. It is filed as cell-based. The protocol:
(§1) MICs (minimal inhibitory concentrations) were determined for the hexapeptides of interest using a slightly modified version of the NCCLS (National Committee for Clinical Laboratory Standards) broth microdilution method as described previously (Steinberg et al., AAC 41: 1738, 1997). Briefly, antimicrobial agents were prepared as 10× concentrates in the most appropriate solvent. For the hexapeptide, 0.01% acetic acid containing 0.2% bovine serum albumin as a carrier protein was used. Inocula were prepared by resuspending colonies from a BAP (please spell out this term) in medium and adjusting the suspension to match that of a 0.5 McFarland standard. The suspension was diluted into fresh medium (as recommended by NCCLS for the organism) to give 2×10^5 to 7×10^5 CFU/ml for bacteria or 2×10^3 to 7×10^3 CFU/ml for Candida. After dispensing 100 μl aliquots of the microbial suspension into each well of a 96-well polypropylene microtiter plate, 11 μl of test compound was added. The MIC was defined as the lowest concentration of drug which prevented visible turbidity after 16 to 20 hours (bacteria) or 46 to 50 hours (Candida) at 35° C.

Series [3] concerns Staphylococcus aureus. It is filed as cell-based. The protocol:
as §1

Series [4] relates to Pseudomonas aeruginosa. It is filed as cell-based. The protocol: as §1
Series [5] relates to S. aureus MRSA. The series is described as follows: Kill kinetics in lipid (liposome) environment with or without serum. Particulars: peptide 0.5 mg/ml; liposomes, presence or absence of serum. It is filed as cell-based. An excerpt: Referring to FIG. 8, not only does lipidation improve the activity of hexapeptides in serum it improves activity in a lipid environment which is a mimic of the human acne lesion environment. The human sebaceous gland secretion, also called sebum, contains squalene, cholesterol, cholesterol esters, wax esters, and triglycerides in which a large […] of P. acnes appears to take advantage of this environment and hydrolyzes certain sebaceous lipids. The pre-pubertal and pubertal increase in sebum secretion is almost certainly involved in the pathogenesis of adolescent acne. The activity of SEQ ID NO: 55 was studied in this environment compared to P64(SEQ ID NO:90), a traditional cationic antimicrobial peptide. Due to the fact that most lipids are water insoluble, peptide-liposomes composed of phosphatidylcholine, phosphatidylglycerol and cholesterol in the molar ratio of 7:2:1 in saline were used and kill kinetics of the peptides were assessed in the presence or absence of serum.

In series [6] the test system is Trychophyton rubrum. Nature of the series: MIC100 against dermatophyte Trychophyton rubrum. It is filed as cell-based. The conditions noted are these: T. rubrum; at 10 days. Here is the method:
(§2) In order to compare the activity of various antimicrobial peptides, including hexapeptide SEQ ID NO:1 (P0666), MIC were determined against the dermatophytes Trychophyton rubrum and Trychophyton mentagrophytes. The concentration of samples investigated were: 2000, 1000, 500, 250 and 125 μg/ml, respectively. The medium used was modified Sabouraud's media without agar. For a 100 mL of modified Sabouraud medium: 3 g of Sabouraud's dextrose broth (Difco) was mixed into 100 mL of deionized water. The pH was adjusted to 7.0 with 0.1 N NaOH. The solution was autoclaved for thirty minutes. 940 μL of medium was poured into sterile 20 mL test tubes with plastic caps and was allowed to cool.
(§3) 50 μL of […] was added to each 20 mL test tube to make the required concentration. A control tube was composed of 50 μL of saline without sample. For the MIC experiments,
(§4) 10 μL of organism suspended in saline was added to the each 20 mL test tube and vortexed slightly. Each of the test tubes was covered in parafilm and maintained on a shaker at 27° C. at a speed of approximately 100 rpm.
(§5) The growth/inhibition of the organism was observed on a daily basis. […] The Minimum Inhibition Concentration (MIC100) for compounds F1 to F10 against fungus Trychophyton rubrum and Trychophyton mentagrophytes at 10 days.

The test system of series [7] is Trychophyton mentagrophytes. The series is described as follows: MIC100 against dermatophyte Trychophyton mentagrophytes. It is filed as cell-based. The conditions noted are these: T. mentagrophytes; at 10 days. The protocol: as §2, §3, §4, §5
Series [8] deals with S. epidermidis ATCC12228. Nature of the series: MIC, broth microdilution, S. epidermidis. It is filed as cell-based. Further details: unit not given beside the values. The conditions noted are these: #86: S. epidermidis ATCC12228. Here is the method:
as §1

In series [9] the test system is Lipoteichoic acid (LTA). The series is described as follows: LTA binding assay. The conditions noted are these: FIG. 7. The text has this: Lipoteichoic acid (LTA) is a common cell wall component of gram-positive bacteria including organisms such as S. aureus and P. acnes. The release of LTA during infection can lead to the release of mediators of the host inflammatory response which in turn can result in sepsis (septic shock). For example, when injected into animals, LTA can elicit many of the characteristic features of septic shock, including cytokine production, leukocytopenia, circulatory failure, multiple-organ dysfunction syndrome, and mortality.

Where two headings read alike, the source gives them in different places. Where a SMILES comes first, the peptide text is derived from it. Where no end group is shown, it is not given here. [ ]: non-standard residue; d: D form. The star is where a group is joined. 2Nal = N[C@@H](Cc1ccc2ccccc2c1)C(=O)O; Tridecanoyl = CCCCCCCCCCCCC(=O)*; Myristoyl = CCCCCCCCCCCCCC(=O)*; Lauroyl = CCCCCCCCCCCC(=O)*; code J = not defined here; Octanoyl = CCCCCCCC(=O)* Some results are limits rather than exact numbers.

On to `CCCCCCCC(=O)N[C@@H](CCCCN)C(=O)N[C@@H](Cc1ccccc1)C(=O)N[C@@H](CCCCN)C(=O)N[C@@H](Cc1c[nH]c2ccccc12)C(=O)N1CCC[C@H]1C(=O)N[C@@H](Cc1c[nH]c2ccccc12)C(N)=O` [SEQ ID NO: 55 (P-1032)] (Octanoyl-KFKWPW-NH2), for which the Tissue reaction severity in series [1] turned out to be 1.
Consider `CC(C)C[C@H](NC(=O)[C@H](C)NC(=O)[C@H](CC(C)C)NC(=O)[C@H](CCCCN)NC(=O)[C@H](C)NC(=O)[C@H](CC(C)C)NC(=O)[C@H](CCCCN)NC(=O)[C@H](CCCCN)NC(=O)[C@H](C)NC(=O)[C@H](CC(C)C)NC(=O)[C@H](CCCCN)NC(=O)[C@H](C)NC(=O)[C@H](CC(C)C)NC(=O)[C@H](CCCCN)NC(=O)[C@H](CCCCN)NC(=O)[C@H](C)NC(=O)[C@@H](N)C(C)C)C(N)=O` [SEQ ID NO: 88, VAKKLAKLAKKLAKLAL-NH2], for which, in [1], the Amount of exudate result is recorded as “S/y” and the “tissue reaction (in words)” value is reported as “mild to moderate”.
Turning to `CCCCCCCCCCCCCC(=O)N[C@@H](CCCCN)C(=O)N[C@@H](Cc1ccccc1)C(=O)N[C@@H](CCCCN)C(=O)N[C@@H](Cc1c[nH]c2ccccc12)C(=O)N1CCC[C@H]1C(=O)N[C@@H](Cc1c[nH]c2ccccc12)C(N)=O` [compound 77] (Myristoyl-KFKWPW-NH2), the “Minimal Inhibitory Concentrations (Mics)” value in series [2] is on record as 4-8 Mg/Ml; in series [3], 8-16 Mg/Ml; in series [4] it was 64-128 Mg/Ml.
With `CCCCCCCCCCCCC(=O)N[C@@H](CCCCN)C(=O)N[C@@H](Cc1ccccc1)C(=O)N[C@@H](CCCCN)C(=O)N[C@@H](Cc1c[nH]c2ccccc12)C(=O)N1CCC[C@H]1C(=O)N[C@@H](Cc1c[nH]c2ccccc12)C(N)=O` [compound 80] (Tridecanoyl-KFKWPW-NH2), the “Minimal Inhibitory Concentrations (Mics)” value in series [3] is 2-4 Mg/Ml.
Consider FAKALKALLKALKAL-NH2 [SEQ ID NO: 90], for which the “kill kinetics in lipid environment (in words)” value in series [5] is “shown to be effective”. The MIC100 was found to be 1000 µg/mL in series [6] and 500 µg/mL in [7].
Turning to H-KWKWFW-NH2 [compound 3], the “Minimal Inhibitory Concentrations (Mics)” value was 64-64 Mg/Ml in series [2] and 32-64 Mg/Ml in series [3].
For H-RFKWFW-NH2 [compound 7], the “Minimal Inhibitory Concentrations (Mics)” value in [2] (C. albicans strain 105) was 64-128^1 Mg/Ml; in series [3], 64-128 Mg/Ml.
In series [8], “KWKWJW-NH2 (KWKW[code J]W-NH2; reading uncertain; also: printed as KWKWJW-NH2) [SEQ ID NO: 60]” came in with an MIC greater than 128.
“KWKWZW-NH2 (KWKW[2Nal]W-NH2) [SEQ ID NO: 63]” gave an MIC in series [8] of 2.
Same read-out and setting: in the case of “OCT-KWKWFW-NH2 (Octanoyl-KWKWFW-NH2; SMILES CCCCCCCC(=O)N[C@@H](CCCCN)C(=O)N[C@@H](Cc1c[nH]c2ccccc12)C(=O)N[C@@H](CCCCN)C(=O)N[C@@H](Cc1c[nH]c2ccccc12)C(=O)N[C@@H](Cc1ccccc1)C(=O)N[C@@H](Cc1c[nH]c2ccccc12)C(N)=O) [SEQ ID NO: 56]” it was 4.
In the case of “SEQ ID NO:72 (Lauroyl-KFKWPW-NH2; SMILES CCCCCCCCCCCC(=O)N[C@@H](CCCCN)C(=O)N[C@@H](Cc1ccccc1)C(=O)N[C@@H](CCCCN)C(=O)N[C@@H](Cc1c[nH]c2ccccc12)C(=O)N1CCC[C@H]1C(=O)N[C@@H](Cc1c[nH]c2ccccc12)C(N)=O)”, in [9], the “LTA binding (in words)” value was “binds LTA to the same degree as a typical highly charged alpha-helical amphipathic peptide”.
Still for that read-out and setting: as for “SEQ ID NO:83 (Lauroyl-[dK][dF][dK][dW][dP][dW]-NH2; SMILES CCCCCCCCCCCC(=O)N[C@H](CCCCN)C(=O)N[C@H](Cc1ccccc1)C(=O)N[C@H](CCCCN)C(=O)N[C@H](Cc1c[nH]c2ccccc12)C(=O)N1CCC[C@@H]1C(=O)N[C@H](Cc1c[nH]c2ccccc12)C(N)=O)”, the entry is “fail to bind LTA”.

These data come from patent US7407940B2, “Antimicrobial hexapeptides” (Helix BioMedix Inc., priority 2005, dated 2008).
